In PMC11129186, “New Improved cGMP Analogues to Target Rod Photoreceptor Degeneration” (Journal of Medicinal Chemistry, 2024):

What was measured:
[1] = Thermal analysis (DSC and TG); assay type: physicochemical; conditions: crystal modification I; scan 10 °C/min
Method: Finally, we performed thermal analyses on crystal modification I by using differential scanning calorimetry (DSC) and thermogravimetry (TG), both of which confirmed a behavior analogous to that of CN03. There were no observable melting points. Instead, there was only a sharp exothermic event on DSC at 170 °C associated with significant mass loss on TG, which we interpreted as a thermal decomposition of the compound (Figure 1B). It should be noted that decomposition peaks on DSC and TG are not indicative of physical stability (e.g., melting point, and solubility). Since the material was crystalline, it was considered to own a melting point at a higher temperature than this decomposition.
DSC analyses were carried out on a Mettler DSC822e, equipped with a Thermo Haake EK45/MT cooler. The samples were weighed into a 40 μL Al-cup, which was then closed with a pierced lid. The sample was scanned from 25 to 300 °C, with a scan rate of 10 °C/min.
TG was performed on a Mettler TGA/SDTA 851e, equipped with a Haake C50P cooler. Alternatively, thermogravimetric and DSC analyses were carried out simultaneously in a Mettler Toledo TGA/DSC 3+. The samples were weighed into a 100 μL Al-cup, and this was flushed with dry nitrogen gas during the analysis. The sample was scanned from 25 to 300 °C, with a scan rate of 10 °C/min.

[2] = system: 661W-A11 cells stressed with zaprinast; assay: Cell death TUNEL assay in cells stressed with zaprinast; assay type: cell-based, mouse; conditions: 50 μM compound, 200 μM zaprinast for 48 h
Method: Viability assay cannot discriminate between protection from cell death and possible increased proliferation induced by the treatment. To discriminate between these two responses, we analyzed cell death by the TUNEL assay that detects dying cells based on fragmented chromatin. The TUNEL assay confirmed data obtained with the MTT assay (Figure 3B,C).
(§1) 661W-A11 cells were seeded in 96-well plates at a density of 6000 cells/well or in 24-well plates at a density of 20,000 cells/well. Twenty-four h after seeding, cells were pretreated with 50 μM of either CN03-Na^+ or CN03 or SP-CN03 or oxo-CN03 or dithio-CN03 for 2 h, followed by 200 μM zaprinast treatment for 48 h in the presence of the compounds. Control groups were treated with an equal volume of vehicle, H2O or DMSO.
661W-A11 cells were seeded in 24-well plates at a density of 20,000 cells/well. After treatments, cells were fixed with 2% paraformaldehyde for 10 min and permeabilized with 1 M Na^+ citrate and 0.1% Triton X-100 on ice for 2 min. Cells were incubated with TUNEL solution “In situ Cell Death Detection Kit” TMR Red (Roche) for 30 min at 37 °C, and cell nuclei were stained with 0.1 μg/mL 4′,6-diamidin-2-fenilindolo (DAPI). […] The quantification of percentage of dead cells was based on the ratio of TUNEL-labeled cells on the total number of cells (DAPI-labeled).

[3] = system: 661W-A11 cells stressed with zaprinast; assay: Cell viability MTT assay in cells stressed with zaprinast; assay type: cell-based, mouse; conditions: 50 μM compound, 200 μM zaprinast for 48 h
Method: The neuroprotective activity of the newly developed compounds was then evaluated in 661W-A11 cells stressed with zaprinast. Viability was assessed by an MTT assay.
as §1
661W-A11 cells were cultured on 96-well plates at a density of 6000 cells/well. After compound treatments, the culture medium was replaced with medium containing 1 mg/mL of MTT (Sigma) and cells were cultured for 90 min at 37 °C. Viability was assessed by MTT assay (see above for detailed procedure). OD was measured at 570 nm.

CCN(CC)CC.O=c1c2nc(Br)n([C@@H]3O[C@@H]4COP(=S)(S)O[C@H]4[C@H]3O)c2nc2[nH]c(-c3ccccc3)cn12 (stereo partly drawn) [dithio-CN03, Triethylammonium 8-Bromo-β-phenyl-1,N^2-ethenoguanosine-3′,5′-cyclicmonophosphorodithioate]
exothermic event on DSC with mass loss on TG, interpreted as thermal decomposition [1]: 170 °C
protection from cell death (TUNEL) [2]: highest neuroprotective activity
protective effect on cell viability (MTT) [3]: significantly higher protective effects compared to CN03-Na^+
